For the assay, the target named is T1, His-hSHIP1 enzyme (Homo sapiens, UniProt Q92835).
T1 sequence (Q92835 1-1189): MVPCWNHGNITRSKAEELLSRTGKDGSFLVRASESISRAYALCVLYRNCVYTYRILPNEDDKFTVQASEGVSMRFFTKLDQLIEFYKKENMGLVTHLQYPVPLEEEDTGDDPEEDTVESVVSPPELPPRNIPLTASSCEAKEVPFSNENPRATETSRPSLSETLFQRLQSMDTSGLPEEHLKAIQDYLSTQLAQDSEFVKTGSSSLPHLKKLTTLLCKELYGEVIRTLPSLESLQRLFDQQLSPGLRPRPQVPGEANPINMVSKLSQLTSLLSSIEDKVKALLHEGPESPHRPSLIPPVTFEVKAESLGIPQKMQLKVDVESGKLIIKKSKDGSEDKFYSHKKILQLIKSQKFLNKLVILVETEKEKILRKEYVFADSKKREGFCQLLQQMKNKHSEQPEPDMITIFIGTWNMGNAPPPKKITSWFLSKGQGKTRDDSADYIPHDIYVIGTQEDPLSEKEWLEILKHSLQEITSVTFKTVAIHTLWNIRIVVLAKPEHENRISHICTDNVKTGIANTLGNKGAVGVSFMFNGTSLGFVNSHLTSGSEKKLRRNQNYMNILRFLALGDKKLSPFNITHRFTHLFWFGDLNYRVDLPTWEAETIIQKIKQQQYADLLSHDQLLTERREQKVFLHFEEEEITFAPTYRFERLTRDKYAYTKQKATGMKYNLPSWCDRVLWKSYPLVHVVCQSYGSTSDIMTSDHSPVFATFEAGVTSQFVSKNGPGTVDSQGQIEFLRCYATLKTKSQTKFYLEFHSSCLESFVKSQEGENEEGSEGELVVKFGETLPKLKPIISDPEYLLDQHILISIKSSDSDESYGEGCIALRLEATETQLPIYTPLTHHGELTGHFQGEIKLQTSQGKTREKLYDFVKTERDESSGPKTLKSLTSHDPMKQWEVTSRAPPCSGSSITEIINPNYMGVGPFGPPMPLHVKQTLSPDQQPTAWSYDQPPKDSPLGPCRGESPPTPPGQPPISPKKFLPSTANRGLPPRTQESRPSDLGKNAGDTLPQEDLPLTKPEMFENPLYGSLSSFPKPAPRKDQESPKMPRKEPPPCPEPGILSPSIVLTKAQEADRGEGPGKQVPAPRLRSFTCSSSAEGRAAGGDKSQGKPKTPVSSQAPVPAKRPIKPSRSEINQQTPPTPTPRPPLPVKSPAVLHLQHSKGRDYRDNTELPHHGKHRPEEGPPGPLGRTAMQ
Description: His-hSHIP1 phosphatase activity assay (IP4 substrate, Biomol Green). The conditions noted are these: percentage increase relative to background; concentrations ≦300 μM. The class given is biochemical. As for the experimental part: Test compounds were dissolved in 95% ethanol to form stock solutions. Before screening, the stock solutions were diluted with Phosphatase Assay Buffer (20 mM Tris-HCL, 10 mM MgCl2 pH 7.5, 0.02% Tween 20) to form working assay solutions that contained 10% ethanol. The assay was carried out on 96-well microtiter plates using a modified procedure of that reported by Ong et al., Blood 110, 1942-1949, 2007 and Yang et al., Org Lett 7, 1073-1076, 2005, both of which references are incorporated herein by reference in their entirety.
Each reaction contained 5 μL of His-hSHIP1 enzyme (15-20 ng), 10 μL of the substrate, 1,3,4,5-inositol tetrakisphosphate (IP4; 50 μM final), 5 μL of Phosphatase Assay Buffer, and 5 μL of test compound at various concentrations in 10% ethanol (0-300 μM final). Control blanks were also prepared by replacing His-hSHIP1 enzyme, IP4, or test compounds with Phosphatase Assay Buffer. After adding the reaction components in a 96-well microtiter plate on ice, the reaction was mixed by briefly shaking the plate vigorously. The reaction was then incubated at 37° C. for 15 min with gentle shaking followed by addition of 100 μL of Biomol Green Reagent (BIOMOL, PA, USA) to terminate the reaction. The free phosphate released from IP4 by His-hSHIP1 bound to the Biomol Green Reagent, turning the solution green in colour. After incubating the mixture for 20 min at room temperature for colour development, the absorbance was read with a SpectraMax Plus 96-well plate reader (Molecular Devices, Sunnyvale, Calif., USA) at a wavelength of 650 nm.
Percent (%) activation in Table 2 is expressed as a percentage increase relative to background. Scoring is expressed as follows: + (<50%); ++ (≧50% but <65%); +++ (≧65%).

For `CC1(C)CCC[C@]2(C)[C@H]3CS(=O)(=O)c4cc(C(=O)O)cc(C(=O)O)c4[C@]3(C)CC[C@@H]12` [compound 85, (1R,10R,11S,16S)-1,11,15,15-tetramethyl-8,8-dioxo-8λ^6-thiatetracyclo[8.8.0.0^2,7.0^11,16]octadeca-2,4,6-triene-3,5-dicarboxylic acid], the “Scoring: percent (%) activation of His-hSHIP1 enzyme” value (“Scoring: percent (%) activation” below) was “+ (<50%)”.
The same measure for `CNC(=O)c1cc(C(=O)NC)c2c(c1)S(=O)(=O)C[C@@H]1[C@@]3(C)CCCC(C)(C)[C@@H]3CC[C@@]21C` [compound 86, (1R,10R,11S,16S)-1,3-N,5-N,11,15,15-hexamethyl-8,8-dioxo-8λ^6-thiatetracyclo[8.8.0.0^2,7.0^11,16]octadeca-2,4,6-triene-3,5-dicarboxamide]: “+ (<50%)”; for `CC1(C)CCC[C@]2(C)[C@H]3CS(=O)(=O)c4cc(O)cc(C(=O)N5CCOCC5)c4[C@]3(C)CC[C@@H]12` [compound 88, (1R,10R,11S,16S)-5-hydroxy-1,11,15,15-tetramethyl-3-[(morpholin-4-yl)carbonyl]-8λ^6-thiatetracyclo-[8.8.0.0^2,7.0^11,16]octadeca-2,4,6-triene-8,8-dione]: “+ (<50%)”; for `COC(=O)CNC(=O)c1cc(O)cc2c1[C@]1(C)CC[C@H]3C(C)(C)CCC[C@]3(C)[C@H]1CS2(=O)=O` [compound 90, methyl 2-{[(1R,10R,11S,16S)-5-hydroxy-1,11,15,15-tetramethyl-8,8-dioxo-8λ^6-thiatetracyclo[8.8.0.0^2,7.0^11,16]octadeca-2,4,6-trien-3-yl]formamido}acetate]: “+ (<50%)”.
The value for `CC1(C)CCC[C@]2(C)[C@H]3CS(=O)(=O)c4cc(O)cc(C(=O)NCC(=O)O)c4[C@]3(C)CC[C@@H]12` [compound 91, 2-{[(1R,10R,11S,16S)-5-hydroxy-1,11,15,15-tetramethyl-8,8-dioxo-8λ^6-thiatetracyclo[8.8.0.0^2,7.0^11,16]octadeca-2,4,6-trien-3-yl]formamido}acetic acid] was “+ (<50%)”.
The value for `CC1(C)CCC[C@]2(C)[C@H]3CS(=O)(=O)c4cc(C(=O)NCC(=O)O)cc(O)c4[C@]3(C)CC[C@@H]12` [compound 93, 2-{[(1R,10R,11S,16S)-3-hydroxy-1,11,15,15-tetramethyl-8,8-dioxo-8λ^6-thiatetracyclo[8.8.0.0^2,7.0^11,16]octadeca-2,4,6-trien-5-yl]formamido}acetic acid] was “+ (<50%)”; that for `CN1CCN(C(=O)c2cc(O)cc3c2[C@]2(C)CC[C@H]4C(C)(C)CCC[C@]4(C)[C@H]2CS3(=O)=O)CC1` [compound 94, (1R,10R,11S,16S)-5-hydroxy-1,11,15,15-tetramethyl-3-[(4-methylpiperazin-1-yl)carbonyl]-8λ^6-thiatetracyclo[8.8.0.0^2,7.0^11,16]octadeca-2,4,6-triene-8,8-dione] was “+ (<50%)”.
For `CONC(=O)c1cc(O)cc2c1[C@]1(C)CC[C@H]3C(C)(C)CCC[C@]3(C)[C@H]1CS2(=O)=O` [compound 95, (1R,10R,11S,16S)-5-hydroxy-N-methoxy-1,11,15,15-tetramethyl-8,8-dioxo-8λ^6-thiatetracyclo[8.8.0.0^2,7.0^11,16]octadeca-2,4,6-triene-3-carboxamide], the “Scoring: percent (%) activation” value is “+ (<50%)”.
Take `CONC(=O)c1cc(O)c2c(c1)S(=O)(=O)C[C@@H]1[C@@]3(C)CCCC(C)(C)[C@@H]3CC[C@@]21C` [compound 96, (1R,10R,11S,16S)-3-hydroxy-N-methoxy-1,11,15,15-tetramethyl-8,8-dioxo-8λ^6-thiatetracyclo[8.8.0.0^2,7.0^11,16]octadeca-2,4,6-triene-5-carboxamide]: the “Scoring: percent (%) activation” value is “+ (<50%)”.
